Test results reported in the supplement of paper PMC10307832.

How the values were obtained:
Test in all cases: relative viability (nuclei count vs DMSO), 5 days (fraction); higher = more cells survive
A-427 = system: A-427
Outline: (§1)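 Medians of duplicate plates are given as relative viability. That measure is the nuclei count in treated wells divided by the count in vehicle wells. Counts were taken on 4× images of lung cancer cell lines in 1536-well plates, 5 days after pin-tool dosing the day after seeding with one drug alone or a fixed anchor-drug dose plus five library-drug doses (not always all listed) in √10 steps.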

COR-L 105 = system: COR-L 105
Outline: as §1

EKVX = system: EKVX
Outline: as §1

EMC-BAC-2 = system: EMC-BAC-2
Outline: as §1

EPLC-272H = system: EPLC-272H
Outline: as §1

HARA = system: HARA
Outline: as §1

HCC-44 = system: HCC-44
Outline: as §1

LK-2 = system: LK-2
Outline: as §1

LU99A = system: LU99A
Outline: as §1

NCI-H1734 = system: NCI-H1734
Outline: as §1

NCI-H1755 = system: NCI-H1755
Outline: as §1

NCI-H1792 = system: NCI-H1792
Outline: as §1

NCI-H1993 = system: NCI-H1993
Outline: as §1

NCI-H2405 = system: NCI-H2405
Outline: as §1

NCI-H358 = system: NCI-H358
Outline: as §1

NCI-H460 = system: NCI-H460
Outline: as §1

NCI-H596 = system: NCI-H596
Outline: as §1

NCI-H647 = system: NCI-H647
Outline: as §1

RERF-LC-KJ = system: RERF-LC-KJ
Outline: as §1

CCNC(=O)c1noc(-c2cc(C(C)C)c(O)cc2O)c1-c1ccc(CN2CCOCC2)cc1 [Luminespib] + C[C@]1(O)C[C@@H](c2nc(-c3ccc4ccc(-c5ccccc5)nc4c3)c3c(N)nccn32)C1 [Linsitinib] (partner 1 µM)
relative viability (A-427; first compound 0.002 µM): 1.12 | relative viability (A-427; first compound 0.006325 µM): 1.09 | relative viability (A-427; first compound 0.02 µM): 0.918 | relative viability (A-427; first compound 0.06325 µM): 1.12 | relative viability (A-427; first compound 0.2 µM): 1.09 | relative viability (COR-L 105; first compound 0.002 µM): 0.843 | relative viability (COR-L 105; first compound 0.006325 µM): 0.811 | relative viability (COR-L 105; first compound 0.02 µM): 0.991 | relative viability (COR-L 105; first compound 0.06325 µM): 0.245 | relative viability (COR-L 105; first compound 0.2 µM): 0.207 | relative viability (EKVX; first compound 0.002 µM): 1 | relative viability (EKVX; first compound 0.006325 µM): 0.989 | relative viability (EKVX; first compound 0.02 µM): 0.721 | relative viability (EKVX; first compound 0.06325 µM): 0.779 | relative viability (EKVX; first compound 0.2 µM): 0.179 | relative viability (EMC-BAC-2; first compound 0.002 µM): 0.793 | relative viability (EMC-BAC-2; first compound 0.006325 µM): 0.783 | relative viability (EMC-BAC-2; first compound 0.02 µM): 0.665 | relative viability (EMC-BAC-2; first compound 0.06325 µM): 0.788 | relative viability (EMC-BAC-2; first compound 0.2 µM): 0.901 | relative viability (EPLC-272H; first compound 0.006325 µM): 1.07 | relative viability (EPLC-272H; first compound 0.02 µM): 0.727 | relative viability (EPLC-272H; first compound 0.06325 µM): 1.11 | relative viability (EPLC-272H; first compound 0.2 µM): 1.14 | relative viability (HARA; first compound 0.002 µM): 0.85 | relative viability (HARA; first compound 0.006325 µM): 0.797 | relative viability (HARA; first compound 0.02 µM): 1.12 | relative viability (HARA; first compound 0.06325 µM): 0.738 | relative viability (HARA; first compound 0.2 µM): 0.0694 | relative viability (HCC-44; first compound 0.002 µM): 0.68 | relative viability (HCC-44; first compound 0.006325 µM): 0.714 | relative viability (HCC-44; first compound 0.02 µM): 0.684 | relative viability (HCC-44; first compound 0.06325 µM): 0.251 | relative viability (HCC-44; first compound 0.2 µM): 0.158 | relative viability (LK-2; first compound 0.002 µM): 0.747 | relative viability (LK-2; first compound 0.006325 µM): 0.522 | relative viability (LK-2; first compound 0.02 µM): 0.455 | relative viability (LK-2; first compound 0.06325 µM): 0.301 | relative viability (LK-2; first compound 0.2 µM): 0.109 | relative viability (LU99A; first compound 0.002 µM): 0.574 | relative viability (LU99A; first compound 0.006325 µM): 0.486 | relative viability (LU99A; first compound 0.02 µM): 0.357 | relative viability (LU99A; first compound 0.06325 µM): 0.172 | relative viability (LU99A; first compound 0.2 µM): 0.144 | relative viability (NCI-H1734; first compound 0.002 µM): 0.917 | relative viability (NCI-H1734; first compound 0.006325 µM): 0.792 | relative viability (NCI-H1734; first compound 0.02 µM): 0.7 | relative viability (NCI-H1734; first compound 0.06325 µM): 0.258 | relative viability (NCI-H1734; first compound 0.2 µM): 0.167 | relative viability (NCI-H1755; first compound 0.002 µM): 0.974 | relative viability (NCI-H1755; first compound 0.006325 µM): 0.944 | relative viability (NCI-H1755; first compound 0.02 µM): 0.98 | relative viability (NCI-H1755; first compound 0.06325 µM): 0.946 | relative viability (NCI-H1755; first compound 0.2 µM): 0.921 | relative viability (NCI-H1792; first compound 0.002 µM): 0.444 | relative viability (NCI-H1792; first compound 0.006325 µM): 0.469 | relative viability (NCI-H1792; first compound 0.02 µM): 0.212 | relative viability (NCI-H1792; first compound 0.06325 µM): 0.297 | relative viability (NCI-H1792; first compound 0.2 µM): 0.106 | relative viability (NCI-H1993; first compound 0.002 µM): 0.829 | relative viability (NCI-H1993; first compound 0.006325 µM): 0.735 | relative viability (NCI-H1993; first compound 0.02 µM): 0.678 | relative viability (NCI-H1993; first compound 0.06325 µM): 0.534 | relative viability (NCI-H1993; first compound 0.2 µM): 0.576 | relative viability (NCI-H2405; first compound 0.002 µM): 1.01 | relative viability (NCI-H2405; first compound 0.006325 µM): 0.721 | relative viability (NCI-H2405; first compound 0.02 µM): 0.613 | relative viability (NCI-H2405; first compound 0.06325 µM): 0.254 | relative viability (NCI-H2405; first compound 0.2 µM): 0.182 | relative viability (NCI-H358; first compound 0.002 µM): 0.828 | relative viability (NCI-H358; first compound 0.006325 µM): 0.654 | relative viability (NCI-H358; first compound 0.02 µM): 0.649 | relative viability (NCI-H358; first compound 0.06325 µM): 0.129 | relative viability (NCI-H358; first compound 0.2 µM): 0.111 | relative viability (NCI-H460; first compound 0.002 µM): 0.862 | relative viability (NCI-H460; first compound 0.006325 µM): 0.64 | relative viability (NCI-H460; first compound 0.02 µM): 0.0374 | relative viability (NCI-H460; first compound 0.06325 µM): 0.0101 | relative viability (NCI-H460; first compound 0.2 µM): 0.0074 | relative viability (NCI-H596; first compound 0.002 µM): 1.06 | relative viability (NCI-H596; first compound 0.006325 µM): 0.995 | relative viability (NCI-H596; first compound 0.06325 µM): 1.06 | relative viability (NCI-H596; first compound 0.2 µM): 0.907 | relative viability (NCI-H647; first compound 0.002 µM): 1.23 | relative viability (NCI-H647; first compound 0.006325 µM): 1.26 | relative viability (NCI-H647; first compound 0.02 µM): 0.914 | relative viability (NCI-H647; first compound 0.06325 µM): 0.0924 | relative viability (NCI-H647; first compound 0.2 µM): 0.0826 | relative viability (RERF-LC-KJ; first compound 0.002 µM): 0.9 | relative viability (RERF-LC-KJ; first compound 0.006325 µM): 0.846 | relative viability (RERF-LC-KJ; first compound 0.02 µM): 0.976 | relative viability (RERF-LC-KJ; first compound 0.06325 µM): 0.968 | relative viability (RERF-LC-KJ; first compound 0.2 µM): 0.366
